Experimental data reported in patent US20110044929A1, “FORMULATIONS AND METHODS FOR TREATMENT OF INFLAMMATORY DISEASES” (Vical Incorporated, priority 2004, published 2011).
Read-outs that look alike come from different tables or passages of the source.

What was measured:
[1] = test system: patients with intermittent claudication; conditions: cited from earlier work
[2] = test system: HUVEC cells; experiment: Adenosine release from HUVEC by liquid chromatography; type: cell-based, human; conditions: over time, normoxic and hypoxic
Experimental: For this reason, studies were undertaken to determine the effect of certain poloxamers in vitro in human vascular endothelial cells (HUVEC) and human skeletal muscle myoblast (HSMM) cells under normoxic and hypoxic (5% O2) conditions. Production of adenosine, cytokines, growth factors, or a combination of these biologically relevant molecules was measured after exposure to either poloxamer-188 (˜BASF Pluronic F-68), poloxamer-235 (˜BASF Pluronic P85), cilostazol, Del-1 protein, or medium alone. Monitoring for generation of adenosine was conducted by HPLC. […] This increased level of adenosine was seen over time in both hypoxic and normoxic cells exposed to poloxamer-235.
HUVEC and HSMM cells are harvested after fourth population doubling from the time of purchase by trypsinization. The cells are suspended in appropriate complete medium and plated in a 60×15 culture dishes at the density of […] per well and incubated for 24 hrs. The cells are fed with EBM (HUVEC cells) and SkBM (HSMM cells) culture medium containing 0.5% FCS for 24 hrs to growth-arrest the cells. […]

[3] = test system: patients with intermittent claudication; conditions: Lederman et al. 2002; cited from earlier work
[4] = test system: mice; experiment: Subcutaneous Matrigel implant model; type: in vivo, mouse
From the text: Poloxamer Inhibition of Inflammation in Murine Study: Initial studies incorporating either FGF (positive control), saline (negative control), Del-1 protein (another known angiogenic agent) or poloxamer-188 into Matrigel that was placed subcutaneously into the lower abdomen of mice yielded interesting results. Matrigel Basement Membrane Matrix (BD Biosciences) is a solubilized basement membrane preparation extracted from the Engelbreth-Holm-Swarm (EHS) mouse sarcoma. Its major component is laminin, followed by collagen IV, heparan sulfate proteoglycans, entactin and nidogen. In the Matrigel angiogenesis model, poloxamer-188 was compared to other known angiogenic agents such as fibroblast growth factor (FGF, positive control), Del-1 protein, or saline as a negative control.
After gaining experience with the system, it was felt that the quantity of Del-1 used should be titrated to see if a dose response with the protein could be distinguished, and to alter the ratio of P188 to matrigel. In the first round of studies it was noted that the 5% P188 concentration added to the Matrigel appeared to inhibit polymerization of the Matrigel. […] Therefore, in the repeat in vivo experiment the Matrigel and poloxamer concentrations were altered such that the initial concentrations were similar to those that yielded good polymerization, but still gave a final concentration of 5% P188 (the concentration tested in clinical trials).
Matrigel implants were placed subcutaneously in the lower abdominal/inguinal region of mice and harvested 4 to 7 days later.

[5] = test system: CD-1 mice; experiment: Murine hindlimb ischemia model; type: in vivo, mouse; conditions: repeated intramuscular injections
From the text: A gene-based approach to Del-1 delivery using a plasmid vector was developed for the purpose of enhancing relatively sustained local concentrations with a consequent reduction in systemic exposure to the angiogenic growth factor while at the same time avoiding known adverse effects that may arise with the use of a viral platform.
Results from preclinical studies with recombinant murine Del-1 protein and with formulated Del-1 plasmid compared favorably to results obtained with bFGF and VEGF165. In-house research provided for selection of the non-ionic polymer poloxamer 188 as an important constituent for a pharmaceutical formulation of the Del-1 gene encoded on plasmid DNA. The poloxamer formulation was developed after considerable research to provide for a compound that would give increased expression over DNA in saline.
The effects of formulated hDel-1 plasmid versus formulated VEGF165 plasmid and empty plasmid were investigated in a murine hindlimb ischemia model. Bilateral ischemia was induced in hindlimbs of CD-1 mice by ligation of the femoral artery. A control group underwent sham surgery without femoral artery ligation. […] Exercise tolerance was then determined at weekly intervals through four weeks post surgery.

Molecule	peak walking time ([1]; 100 mg twice/day)	observed difference in change in PWT versus placebo ([1]; Dawson et al. 1998) [min]	side effects (headaches, palpitations, gastrointestinal disturbances) ([1]; clinical trials)	adenosine in the supernatant [2]	observed difference in change in PWT versus placebo [3] [min]	cellular response of Matrigel implant ([4]; Del-1 less than 200 ugs/ml)	vessel growth in Matrigel angiogenesis model ([4]; first round of studies)	morphologic pattern of Matrigel implant (cellularity) ([4]; harvested 4 to 7 days, H&E, Del-1 at 200 ug/ml)	vascular perfusion [5]
O=C1CCc2cc(OCCCCc3nnnn3C3CCCCC3)ccc2N1 [cilostazol]	improve peak walking time	2.00	high incidence of side effects	least stimulatory	–	–	–	–	–
recombinant fibroblast growth factor-2: recombinant fibroblast growth factor-2 of the TRAFFIC study	–	–	–	–	1.17	–	–	–	–
Del-1 protein: Developmentally regulated Endothelial Locus-1, an endothelial cell stimulating angiogenic protein (protein, UniProt O43854 24-480, looked up) EGF-like repeat and discoidin …: DICDPNPCENGGICLPGLADGSFSCECPDGFTDPNCSSVVEVASDEEEPTSAGPCTPNPCHNGGTCEISEAYRGDTFIGYVCKCPRGFNGIHCQHNINECEVEPCKNGGICTDLVANYSCECPGEFMGRNCQYKCSGPLGIEGGIISNQQITASSTHRALFGLQKWYPYYARLNKKGLINAWTAAENDRWPWIQINLQRKMRVTGVITQGAKRIGSPEYIKSYKIAYSNDGKTWAMYKVKGTNEDMVFRGNIDNNTPYANSFTPPIKAQYVRLYPQVCRRHCTLRMELLGCELSGCSEPLGMKSGHIQDYQITASSIFRTLNMDMFTWEPRKARLDKQGKVNAWTSGHNDQSQWLQVDLLVPTKVTGIITQGAKDFGHVQFVGSYKLAYSNDGEHWTVYQDEKQRKDKVFQGNFDNDTHRKNVIDPPIYARHIRILPWSWYGRITLRSELLGCTEEE	–	–	–	least stimulatory	–	substantially less cellular response	light to moderate vessel growth	high cellularity	increased vascular perfusion
